Source: article PMC10177510, “A Multicenter, Open-Label, Phase I/II Study of FN-1501 in Patients with Advanced Solid Tumors” (Cancers, 2023)

Test: Phase I/II dose escalation: safety and tolerability (DLT, TEAE)
Type: in vivo
Procedure: This Phase 1/2, FIH, open-label, multi-center, single-arm, dose-escalation study was conducted in pts with histologically or cytologically confirmed advanced solid tumors or R/R AML.
In the absence of worrisome toxicity, the remaining pts could be enrolled and dosed in that cohort. Safety evaluations were performed by investigators, the medical monitor, and the Sponsor. A Safety Monitoring Committee determined dose levels to be administered during dose escalation based on data available from the current and previous dose levels.

CN1CCN(Cc2ccc(NC(=O)c3[nH]ncc3Nc3ncnc4[nH]ccc34)cc2)CC1 [FN-1501]
Dose-Limiting Toxicity (2.5 mg/day, 4 patients): 0
Abdominal pain, patients with event (2.5 mg/day, N = 4): 1
Back pain, patients with event (2.5 mg/day, N = 4): 1
Constipation, patients with event (2.5 mg/day, N = 4): 0
Decreased appetite, patients with event (2.5 mg/day, N = 4): 1
Diarrhea, patients with event (2.5 mg/day, N = 4): 0
Dizziness, patients with event (2.5 mg/day, N = 4): 0
Dyspnea, patients with event (2.5 mg/day, N = 4): 1
Fatigue, Grade ≥ 3 TEAE, n (%) (2.5 mg/day, N = 4): 1 (25)
Fatigue, patients with event (2.5 mg/day, N = 4): 1
Infusion-related reaction, patients with event (2.5 mg/day, N = 4): 0
Nausea, patients with event (2.5 mg/day, N = 4): 1
Oedema peripheral, patients with event (2.5 mg/day, N = 4): 1
Pyrexia, patients with event (2.5 mg/day, N = 4): 0
Total number of TEAEs (2.5 mg/day, N = 4): 20
Total patients with at least 1 TEAE (2.5 mg/day, N = 4): 4
Vomiting, patients with event (2.5 mg/day, N = 4): 1
Dose-Limiting Toxicity (5 mg/day, 3 patients): 0
Abdominal pain, patients with event (5 mg/day, N = 3): 1
Back pain, patients with event (5 mg/day, N = 3): 0
Constipation, patients with event (5 mg/day, N = 3): 1
Decreased appetite, patients with event (5 mg/day, N = 3): 0
Diarrhea, patients with event (5 mg/day, N = 3): 1
Diarrhoea, Grade ≥ 3 TEAE, n (%) (5 mg/day, N = 3): 1
Dizziness, patients with event (5 mg/day, N = 3): 0
Dyspnea, patients with event (5 mg/day, N = 3): 0
Fatigue, patients with event (5 mg/day, N = 3): 1
Infusion-related reaction, patients with event (5 mg/day, N = 3): 1
Nausea, patients with event (5 mg/day, N = 3): 1
Oedema peripheral, patients with event (5 mg/day, N = 3): 1
Pyrexia, patients with event (5 mg/day, N = 3): 1
Small intestinal obstruction, Grade ≥ 3 TEAE, n (%) (5 mg/day, N = 3): 1 (33)
Total number of TEAEs (5 mg/day, N = 3): 23
Total patients with at least 1 TEAE (5 mg/day, N = 3): 3
Vomiting, patients with event (5 mg/day, N = 3): 1
Dose-Limiting Toxicity (10 mg/day, 5 patients): 0
Abdominal pain, patients with event (10 mg/day, N = 5): 0
Back pain, patients with event (10 mg/day, N = 5): 0
Bacterial sepsis, Grade ≥ 3 TEAE, n (%) (10 mg/day, N = 5): 1
Constipation, patients with event (10 mg/day, N = 5): 1
Decreased appetite, patients with event (10 mg/day, N = 5): 0
Delirium, Grade ≥ 3 TEAE, n (%) (10 mg/day, N = 5): 1
Diarrhea, patients with event (10 mg/day, N = 5): 0
Dizziness, patients with event (10 mg/day, N = 5): 0
Dyspnea, patients with event (10 mg/day, N = 5): 1
Fatigue, patients with event (10 mg/day, N = 5): 2
Infusion-related reaction, patients with event (10 mg/day, N = 5): 0
Lung infection, Grade ≥ 3 TEAE, n (%) (10 mg/day, N = 5): 1
Nausea, patients with event (10 mg/day, N = 5): 1
Oedema peripheral, patients with event (10 mg/day, N = 5): 0
Pyrexia, patients with event (10 mg/day, N = 5): 0
Stomatitis, Grade ≥ 3 TEAE, n (%) (10 mg/day, N = 5): 1
Total number of TEAEs (10 mg/day, N = 5): 25
Total patients with at least 1 TEAE (10 mg/day, N = 5): 4
Vomiting, patients with event (10 mg/day, N = 5): 1
Dose-Limiting Toxicity (15 mg/day, 3 patients): 0
Abdominal pain, patients with event (15 mg/day, N = 3): 1
Back pain, patients with event (15 mg/day, N = 3): 1
Catheter site infection, Grade ≥ 3 TEAE, n (%) (15 mg/day, N = 3): 1
Constipation, patients with event (15 mg/day, N = 3): 1
Decreased appetite, patients with event (15 mg/day, N = 3): 0
Diarrhea, patients with event (15 mg/day, N = 3): 2
Dizziness, patients with event (15 mg/day, N = 3): 2
Dyspnea, patients with event (15 mg/day, N = 3): 0
Fatigue, patients with event (15 mg/day, N = 3): 0
Infusion-related reaction, patients with event (15 mg/day, N = 3): 1
Nausea, patients with event (15 mg/day, N = 3): 2
Oedema peripheral, patients with event (15 mg/day, N = 3): 0
Pyrexia, patients with event (15 mg/day, N = 3): 1
Total number of TEAEs (15 mg/day, N = 3): 41
Total patients with at least 1 TEAE (15 mg/day, N = 3): 3
Vascular access complication, Grade ≥ 3 TEAE, n (%) (15 mg/day, N = 3): 1
Vomiting, patients with event (15 mg/day, N = 3): 0
Dose-Limiting Toxicity (22.5 mg/day, 4 patients): 0
Abdominal pain, Grade ≥ 3 TEAE, n (%) (22.5 mg/day, N = 4): 1
Abdominal pain, patients with event (22.5 mg/day, N = 4): 2
Back pain, patients with event (22.5 mg/day, N = 4): 0
Constipation, patients with event (22.5 mg/day, N = 4): 1
Decreased appetite, patients with event (22.5 mg/day, N = 4): 2
Diarrhea, patients with event (22.5 mg/day, N = 4): 0
Dizziness, patients with event (22.5 mg/day, N = 4): 1
Dyspnea, patients with event (22.5 mg/day, N = 4): 1
Fatigue, patients with event (22.5 mg/day, N = 4): 2
Infusion-related reaction, patients with event (22.5 mg/day, N = 4): 0
Nausea, patients with event (22.5 mg/day, N = 4): 1
Oedema peripheral, patients with event (22.5 mg/day, N = 4): 0
Pyrexia, patients with event (22.5 mg/day, N = 4): 1
Total number of TEAEs (22.5 mg/day, N = 4): 26
Total patients with at least 1 TEAE (22.5 mg/day, N = 4): 4
Vomiting, patients with event (22.5 mg/day, N = 4): 1
Dose-Limiting Toxicity (30 mg/day, 3 patients): 0
Abdominal pain, patients with event (30 mg/day, N = 3): 1
Back pain, patients with event (30 mg/day, N = 3): 0
Constipation, patients with event (30 mg/day, N = 3): 0
Decreased appetite, patients with event (30 mg/day, N = 3): 0
Diarrhea, patients with event (30 mg/day, N = 3): 1
Dizziness, patients with event (30 mg/day, N = 3): 0
Dyspnea, patients with event (30 mg/day, N = 3): 0
Fatigue, patients with event (30 mg/day, N = 3): 1
Hyponatraemia, Grade ≥ 3 TEAE, n (%) (30 mg/day, N = 3): 1
Infusion-related reaction, patients with event (30 mg/day, N = 3): 0
Nausea, patients with event (30 mg/day, N = 3): 1
Oedema peripheral, patients with event (30 mg/day, N = 3): 0
Pyrexia, patients with event (30 mg/day, N = 3): 0
Syncope, Grade ≥ 3 TEAE, n (%) (30 mg/day, N = 3): 1 (33)
Total number of TEAEs (30 mg/day, N = 3): 16
Total patients with at least 1 TEAE (30 mg/day, N = 3): 3
Vomiting, patients with event (30 mg/day, N = 3): 0
Dose-Limiting Toxicity (40 mg/day, 4 patients): 0
Abdominal distension, Grade ≥ 3 TEAE, n (%) (40 mg/day, N = 4): 1 (25)
Abdominal pain, patients with event (40 mg/day, N = 4): 0
Back pain, patients with event (40 mg/day, N = 4): 0
Blood alkaline phosphatase increased, Grade ≥ 3 TEAE, n (%) (40 mg/day, N = 4): 1 (25)
Blood bilirubin increased, Grade ≥ 3 TEAE, n (%) (40 mg/day, N = 4): 1 (25)
Constipation, patients with event (40 mg/day, N = 4): 0
Decreased appetite, patients with event (40 mg/day, N = 4): 0
Diarrhea, patients with event (40 mg/day, N = 4): 1
Dizziness, patients with event (40 mg/day, N = 4): 0
Dyspnea, patients with event (40 mg/day, N = 4): 0
Fatigue, patients with event (40 mg/day, N = 4): 1
Hyponatraemia, Grade ≥ 3 TEAE, n (%) (40 mg/day, N = 4): 1
Infusion-related reaction, patients with event (40 mg/day, N = 4): 0
Nausea, patients with event (40 mg/day, N = 4): 0
Oedema peripheral, patients with event (40 mg/day, N = 4): 1
Peritonitis, Grade ≥ 3 TEAE, n (%) (40 mg/day, N = 4): 1 (25)
Pyrexia, patients with event (40 mg/day, N = 4): 1
Total number of TEAEs (40 mg/day, N = 4): 21
Total patients with at least 1 TEAE (40 mg/day, N = 4): 4
Vomiting, patients with event (40 mg/day, N = 4): 1
Dose-Limiting Toxicity (54 mg/day, 3 patients): 0
Abdominal pain, patients with event (54 mg/day, N = 3): 0
Anaemia, Grade ≥ 3 TEAE, n (%) (54 mg/day, N = 3): 1 (33)
Back pain, patients with event (54 mg/day, N = 3): 0
Constipation, patients with event (54 mg/day, N = 3): 0
Decreased appetite, patients with event (54 mg/day, N = 3): 0
Diarrhea, patients with event (54 mg/day, N = 3): 0
Dizziness, patients with event (54 mg/day, N = 3): 0
Dyspnea, patients with event (54 mg/day, N = 3): 0
Fatigue, Grade ≥ 3 TEAE, n (%) (54 mg/day, N = 3): 1 (33)
Fatigue, patients with event (54 mg/day, N = 3): 2
Infusion-related reaction, patients with event (54 mg/day, N = 3): 1
Nausea, patients with event (54 mg/day, N = 3): 0
Oedema peripheral, patients with event (54 mg/day, N = 3): 0
Pyrexia, patients with event (54 mg/day, N = 3): 0
Total number of TEAEs (54 mg/day, N = 3): 12
Total patients with at least 1 TEAE (54 mg/day, N = 3): 3
Vomiting, patients with event (54 mg/day, N = 3): 0
Dose-Limiting Toxicity (72 mg/day, 3 patients): 0
Abdominal pain, patients with event (72 mg/day, N = 3): 1
Back pain, patients with event (72 mg/day, N = 3): 1
Constipation, patients with event (72 mg/day, N = 3): 0
Decreased appetite, patients with event (72 mg/day, N = 3): 0
